In patent US7282491B2, “Prokaryotic proteasomal proteases of Mycobacterium tuberculosis (MTB) as targets for antibiotic therapy” (Cornell Research Foundation, Inc., priority 2002, dated 2007):

Tests used:
wt Mtb [1] = test system: wt Mtb
mycobacterial proteasome = mycobacterial proteasome (Mycobacterium tuberculosis, UniProt P9WHT9); conditions: tetrapeptide substrate, 0.05% SDS; FIG. 11A
Protocol: To measure proteasomal protease activity, Mtb was lysed by agitation with zirconia silica beads. The soluble fraction was filtered through a 0.45 micron filter. Aliquots of the filtrate (120 g protein) were incubated with succinyl-leu-leu-val-tyr-alpha-methylcoumarin (SEQ ID NO: 1) in the presence of 0.05% SDS and fluorescence was monitored. […] The 50% inhibitory concentration was determined by applying the Hill equation to data from 2 experiments, each in triplicate.

wt Mtb [2] = format: cell-based, Mycobacterium tuberculosis; conditions: for augmentation of anti-mycobacterial activity of nitrite, inhibitor added along with nitrite at day 0: pH 6.5
wt Mtb [3] = format: cell-based, Mycobacterium tuberculosis
tubercle bacilli = conditions: cited from earlier work

mycobacterial proteasome, sequence (P9WHT9 58-291): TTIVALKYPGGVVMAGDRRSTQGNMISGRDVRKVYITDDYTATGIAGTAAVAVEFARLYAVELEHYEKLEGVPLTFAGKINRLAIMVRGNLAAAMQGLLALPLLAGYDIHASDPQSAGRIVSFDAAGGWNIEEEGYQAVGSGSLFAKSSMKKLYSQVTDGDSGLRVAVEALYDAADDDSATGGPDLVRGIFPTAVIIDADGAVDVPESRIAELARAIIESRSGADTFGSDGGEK
mycobacterial proteasome, sequence (P9WHU1 whole entry partner): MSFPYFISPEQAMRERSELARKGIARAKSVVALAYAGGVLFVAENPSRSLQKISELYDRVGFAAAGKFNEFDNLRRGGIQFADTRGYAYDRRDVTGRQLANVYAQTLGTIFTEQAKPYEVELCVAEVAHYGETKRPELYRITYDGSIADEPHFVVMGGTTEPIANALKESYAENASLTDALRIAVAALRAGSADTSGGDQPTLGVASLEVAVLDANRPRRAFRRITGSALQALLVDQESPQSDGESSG

SMILES	outgrowth of Mtb in culture after nitrite (wt Mtb [1])	inhibition of proteasomal protease activity in Mtb lysates (mycobacterial proteasome)	augmentation of anti-mycobacterial activity of nitrite, inhibitor added only at the subculture (wt Mtb [2])	augmentation of nitrite-mediated injury of wt Mtb (wt Mtb [2])	augmentation of the mycobacteriacidal effect of nitrite, inhibitors and nitrite removed simultaneously (wt Mtb [2])	augmentation of anti-mycobacterial activity of nitrite, inhibitor added along with nitrite at day 0 (wt Mtb [2])	growth of Mtb under standard culture conditions (wt Mtb [3])	potency of killing tubercle bacilli in vitro (tubercle bacilli)
CC(C)C[C@H](NC(=O)[C@H](Cc1cccc2ccccc12)NC(=O)N1CCOCC1)B(O)O [MLN-273, N-[4-morpholine]carbonyl-β-[1-naphthyl]-L-alanine-L-leucine boronic acid]	enhanced the ability of nitrite to suppress outgrowth of Mtb	potently blocked proteasomal protease activity	just as effective	augmented nitrite-mediated injury	did not	increased the anti-mycobacterial activity of nitrite	suppressed the growth of Mtb	–
CC[C@H](C)[C@H](NC(=O)[C@H]([C@@H](C)CC)N(C)C(C)=O)C(=O)N[C@H](C(=O)N[C@@H](CC(C)C)C(=O)[C@@]1(C)CO1)[C@@H](C)O [epoxomicin]	–	–	just as effective	–	augmented the mycobacteriacidal effect of nitrite	increased the anti-mycobacterial activity of nitrite	–	–
[N]=O [nitric oxide]	–	–	–	–	–	–	–	~150 nM
